Our source for the IC50 and melting point values is patent US20150368195A1, “INDOLINE COMPOUNDS FOR TREATMENT AND/OR PREVENTION OF INFLAMMATION DISEASES” (Taipei Medical University, priority 2014, published 2015).

The IC50 is the concentration needed to halve the response being measured. A word on the melting point: it is the temperature of the solid-liquid transition.

For one data set, the system named is prostaglandin E2 (PGE2). The data set can be described thus: LPS-induced PGE2 production in RAW 264.7 macrophages. The data set is classed as cell-based, Mouse. To be noted: Mus musculus, RAW264.7; LPS-stimulated RAW 264.7 macrophages; mean ± SEM, three experiments. On the procedure:
(§1) Furthermore, the anti-inflammatory effects of MPT0G009 was evaluated. […] These supernatants were then assayed for PGE2, NO, and IL-6.

In a further data set the test system is interleukin-6 (IL-6). The experiment in a line: LPS-induced IL-6 production in RAW 264.7 macrophages. The settings on record: Mus musculus, RAW264.7, read-out: IC50 IL-6.
The test system of data set [1] is tumor necrosis factor-α (TNF-α). The data set can be described thus: LPS-induced TNF-α production in RAW 264.7 macrophages. The settings on record: Mus musculus, RAW264.7, read-out: IC50 TNF-α.
In the next data set the test system is nitric oxide (NO). The experiment in a line: LPS-induced nitric oxide production in RAW 264.7 macrophages. The data set is classed as cell-based, Mouse. The settings on record: Mus musculus, RAW264.7; LPS-stimulated RAW 264.7 macrophages; mean ± SEM, three experiments. As for the experimental part: Nitrite concentration was determined using a dilution of sodium nitrite as a standard.
as §1

For `O=C(/C=C/c1ccc2c(ccn2S(=O)(=O)c2ccccc2)c1)NO` [Compound 6], the IC50 was 5.13 ± 0.48 µM with prostaglandin E2 (PGE2), 0.17 µM with interleukin-6 (IL-6), 3.73 ± 0.26 µM in data set [1] and greater than 10 µM in the data set with nitric oxide (NO).

`O=C(C=Cc1ccc2c(c1)CCN2S(=O)(=O)c1ccccc1)NO` [Compound 7, 3-(1-Benzenesulfonyl-2,3-dihydro-1H-indol-5-yl)-N-hydroxyacrylamide]: the 50% inhibitory concentration (IC50) in the data set on prostaglandin E2 (PGE2) worked out at 1.68 ± 0.27 µM; in the data set with interleukin-6 (IL-6), 0.02 µM; in data set [1], 0.99 ± 0.07 µM; with nitric oxide (NO), 4.64 ± 0.12 µM.

The compound `COc1cccc(S(=O)(=O)N2CCc3cc(C=CC(=O)NO)ccc32)c1` [Compound 8, 3-[1-(3-Methoxybenzenesulfonyl)-2,3-dihydro-1H-indol-5-yl]-N-hydroxyacrylamide] showed a melting point of 156 to 157 °C. Besides, the IC50 in the data set with prostaglandin E2 (PGE2) was 1.36 ± 0.29 µM. Moreover, in the data set on interleukin-6 (IL-6), the IC50 is 0.02 µM. In addition, the 50% inhibitory concentration (IC50) in data set [1] amounted to 1.09 ± 0.12 µM. The compound further displayed an IC50 in the data set with nitric oxide (NO) of 7.35 ± 0.83 µM.

For the compound `COc1ccc(S(=O)(=O)N2CCc3cc(C=CC(=O)NO)ccc32)cc1OC` [Compound 10, 3-[1-(3,4-Dimethoxybenzenesulfonyl)-2,3-dihydro-1H-indol-5-yl]-N-hydroxyacrylamide], the melting point lay in the range of 192 to 193 °C. This compound showed a concentration for half-maximal inhibition (IC50) in the data set with prostaglandin E2 (PGE2) of 1.9 ± 0.21 µM. Further, the 50% inhibitory concentration (IC50) with interleukin-6 (IL-6) worked out at 0.01 µM. In data set [1], the IC50 was 0.62 ± 0.12 µM. In the data set on nitric oxide (NO), this compound had an IC50 of 7.31 ± 0.66 µM.

In turn, `O=C(C=Cc1ccc2c(c1)CCN2S(=O)(=O)c1ccc(F)cc1)NO` [Compound 11, 3-[1-(4-Fluorobenzenesulfonyl)-2,3-dihydro-1H-indol-5-yl]-N-hydroxyacrylamide] had a melting point of 129 to 131 °C. Besides, in the data set on prostaglandin E2 (PGE2), the half-maximal inhibitory concentration (IC50) turned out to be 1.31 ± 0.16 µM. For the same compound, the half-inhibitory concentration (IC50) with interleukin-6 (IL-6) was found to be 0.03 µM. In addition, the IC50 in data set [1] worked out at 1.04 ± 0.25 µM. The midpoint of inhibition in the data set on nitric oxide (NO), the IC50, lay at 4.41 ± 0.31 µM.

Compound `O=C(C=Cc1ccc2c(c1)CCN2S(=O)(=O)c1ccc(Cl)cc1)NO` [Compound 12, 3-[1-(4-Chlorobenzenesulfonyl)-2,3-dihydro-1H-indol-5-yl]-N-hydroxyacrylamide] displayed a melting point of 159 to 160 °C. Further, in the data set on prostaglandin E2 (PGE2), it took 1.04 ± 0.15 µM to reach half-maximal inhibition (IC50). Further, the IC50 in the data set with interleukin-6 (IL-6) was determined as 0.02 µM. The 50% inhibitory concentration (IC50) in data set [1] was 1.01 ± 0.11 µM. For the same compound, the 50% inhibitory concentration (IC50) with nitric oxide (NO) was 5.49 ± 0.48 µM.

Take `O=C(C=Cc1ccc2c(c1)CCN2S(=O)(=O)c1ccc([N+](=O)[O-])cc1)NO` [Compound 13, 3-[1-(4-Nitrobenzenesulfonyl)-2,3-dihydro-1H-indol-5-yl]-N-Hydroxyacrylamide]: the melting point was in the range of 163 to 165 °C. Moreover, the half-maximal inhibitory concentration (IC50) with prostaglandin E2 (PGE2) turned out to be 1.76 ± 0.26 µM. Further, the concentration for half-maximal inhibition (IC50) with interleukin-6 (IL-6) is 0.02 µM. The IC50 in data set [1] was determined as 1.37 ± 0.18 µM. Also, the IC50 with nitric oxide (NO) is 3.11 ± 0.37 µM.

`Nc1ccc(S(=O)(=O)N2CCc3cc(C=CC(=O)NO)ccc32)cc1` [Compound 14, 3-[1-(4-Aminobenzenesulfonyl)-2,3-dihydro-1H-indol-5-yl]-N-hydroxyacrylamide] displayed a melting point of 97 to 99 °C. For the same compound, in the data set on prostaglandin E2 (PGE2), the IC50 was greater than 10 µM. For the same compound, in the data set with interleukin-6 (IL-6), the IC50 was greater than 10 µM. In addition, in data set [1], the IC50 was greater than 10 µM. The IC50 in the data set on nitric oxide (NO) is greater than 10 µM.

In turn, `CN(C)c1cccc2c(S(=O)(=O)N3CCc4cc(C=CC(=O)NO)ccc43)cccc12` [Compound 15, 3-[1-(5-Dimethylaminonaphthalene-1-sulfonyl)-2,3-dihydro-1H-indol-5-yl]-N-hydroxyacrylamide] yielded a melting point of 142 to 143 °C. Besides, the IC50 with prostaglandin E2 (PGE2) stood at 2.7 ± 0.43 µM. Besides, the half-inhibitory concentration (IC50) with interleukin-6 (IL-6) was 0.09 µM. Besides, the concentration for half-maximal inhibition (IC50) in data set [1] was 2.11 ± 0.28 µM. In the data set with nitric oxide (NO), this compound returned an IC50 greater than 10 µM.
